In patent US20220324815A1, “2-PHENOXY-PYRIMIDINE DERIVATIVES AS HERBICIDAL COMPOUNDS” (SYNGENTA CROP PROTECTION AG, priority 2019, published 2022):

Legend:
Assay type in all cases: in vivo
Conditions in all cases: 250 g/ha unless otherwise stated, evaluated after 13 days, five-point scale
[1] = tested on: Amaranthus retoflexus (AMARE); assay: Test 1 glasshouse herbicide test, post-emergence application (Table B1)
Summary of the method: (§1)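 Score is % phytotoxicity after 13 days, binned 1 (0–20%) to 5 (81–100%). Compound given at 250 g/ha unless stated, as acetone/water (50:50) spray with 0.5% Tween 20, one day post-sowing (pre-emergence) or after 8 days' growth (post-emergence); glasshouse at 24/16 °C day/night, 14 h light, 65% humidity.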

[2] = tested on: Echinochloa crus-galli (ECHCG); assay: as above
Summary of the method: as §1

[3] = tested on: Ipomoea hederacea (IPOHE); assay: as above
Summary of the method: as §1

Setaria faberi (SETFA) [4] = assay: as above
Summary of the method: as §1

[5] = tested on: Amaranthus retoflexus (AMARE); assay: Test 1 glasshouse herbicide test, pre-emergence application (Table B2)
Summary of the method: as §1

[6] = tested on: Echinochloa crus-galli (ECHCG); assay: as above
Summary of the method: as §1

[7] = tested on: Ipomoea hederacea (IPOHE); assay: as above
Summary of the method: as §1

Setaria faberi (SETFA) [8] = assay: as above
Summary of the method: as §1

Compound	% phytotoxicity AMARE, post-emergence application [1]	% phytotoxicity ECHCG, post-emergence application [2]	% phytotoxicity IPOHE, post-emergence application [3]	% phytotoxicity SETFA, post-emergence application (Setaria faberi (SETFA) [4])	% phytotoxicity AMARE, pre-emergence application [5]	% phytotoxicity ECHCG, pre-emergence application [6]	% phytotoxicity IPOHE, pre-emergence application [7]	% phytotoxicity SETFA, pre-emergence application (Setaria faberi (SETFA) [8])
CC(C)CS(=O)(=O)c1ccccc1Oc1ncc(Cl)cn1 [Compound A76]	1 (1=0 to 20%)	2 (2=21 to 40%)	2 (2=21 to 40%)	1 (1=0 to 20%)	5 (5=81 to 100%)	3 (3=41 to 60%)	2 (2=21 to 40%)	4 (4=61 to 80%)
CCCCCCS(=O)(=O)c1ccccc1Oc1ncc(Cl)cn1 [Compound A77]	2 (2=21 to 40%)	1 (1=0 to 20%)	1 (1=0 to 20%)	1 (1=0 to 20%)	4 (4=61 to 80%)	3 (3=41 to 60%)	1 (1=0 to 20%)	1 (1=0 to 20%)
O=S(=O)(CCCF)c1ccccc1Oc1ncc(Cl)cn1 [Compound A82]	3 (3=41 to 60%)	1 (1=0 to 20%)	3 (3=41 to 60%)	1 (1=0 to 20%)	5 (5=81 to 100%)	3 (3=41 to 60%)	1 (1=0 to 20%)	3 (3=41 to 60%)
CCC(CC)CS(=O)(=O)c1ccccc1Oc1ncc(Cl)cn1 [Compound A87]	1 (1=0 to 20%)	1 (1=0 to 20%)	1 (1=0 to 20%)	1 (1=0 to 20%)	1 (1=0 to 20%)	1 (1=0 to 20%)	1 (1=0 to 20%)	1 (1=0 to 20%)
CCC(C)S(=O)(=O)c1ccccc1Oc1ncc(Cl)cn1 (stereo not drawn) [Compound A88]	2 (2=21 to 40%)	1 (1=0 to 20%)	1 (1=0 to 20%)	1 (1=0 to 20%)	5 (5=81 to 100%)	1 (1=0 to 20%)	2 (2=21 to 40%)	5 (5=81 to 100%)
O=S(=O)(Cc1cccc(Cl)c1)c1ccccc1Oc1ncc(Cl)cn1 [Compound A89]	3 (3=41 to 60%)	1 (1=0 to 20%)	1 (1=0 to 20%)	1 (1=0 to 20%)	1 (1=0 to 20%)	1 (1=0 to 20%)	1 (1=0 to 20%)	1 (1=0 to 20%)
N#Cc1cccc(Oc2ncc(Cl)cn2)c1S(=O)(=O)CCCCC(F)(F)F [Compound A91]	5 (5=81 to 100%)	5 (5=81 to 100%)	4 (4=61 to 80%)	4 (4=61 to 80%)	5 (5=81 to 100%)	5 (5=81 to 100%)	5 (5=81 to 100%)	5 (5=81 to 100%)
N#Cc1cccc(Oc2ncc(Cl)cn2)c1S(=O)(=O)CCCCCC(F)(F)F [Compound A92]	5 (5=81 to 100%)	3 (3=41 to 60%)	2 (2=21 to 40%)	2 (2=21 to 40%)	5 (5=81 to 100%)	4 (4=61 to 80%)	1 (1=0 to 20%)	4 (4=61 to 80%)
FC(F)CCSc1c(Cl)cccc1Oc1ncc(Cl)cn1 [Compound A94]	5 (5=81 to 100%)	5 (5=81 to 100%)	3 (3=41 to 60%)	5 (5=81 to 100%)	5 (5=81 to 100%)	5 (5=81 to 100%)	3 (3=41 to 60%)	5 (5=81 to 100%)
[O-][S+](CCC(F)F)c1c(Cl)cccc1Oc1ncc(Cl)cn1 (stereo not drawn) [Compound A95]	4 (4=61 to 80%)	2 (2=21 to 40%)	4 (4=61 to 80%)	1 (1=0 to 20%)	5 (5=81 to 100%)	5 (5=81 to 100%)	5 (5=81 to 100%)	5 (5=81 to 100%)
O=S(=O)(CCC(F)F)c1c(Cl)cccc1Oc1ncc(Cl)cn1 [Compound A96]	5 (5=81 to 100%)	5 (5=81 to 100%)	5 (5=81 to 100%)	5 (5=81 to 100%)	5 (5=81 to 100%)	5 (5=81 to 100%)	5 (5=81 to 100%)	5 (5=81 to 100%)
N#Cc1cccc(Oc2ncc(Cl)cn2)c1S(=O)(=O)CCC(F)F [Compound A97]	5 (5=81 to 100%)	4 (4=61 to 80%)	4 (4=61 to 80%)	2 (2=21 to 40%)	5 (5=81 to 100%)	4 (4=61 to 80%)	5 (5=81 to 100%)	4 (4=61 to 80%)
N#Cc1cccc(Oc2ncc(Cl)cn2)c1[S+]([O-])CCC(F)F (stereo not drawn) [Compound A98]	5 (5=81 to 100%)	4 (4=61 to 80%)	4 (4=61 to 80%)	4 (4=61 to 80%)	5 (5=81 to 100%)	5 (5=81 to 100%)	5 (5=81 to 100%)	5 (5=81 to 100%)
N#Cc1cccc(Oc2ncc(Cl)cn2)c1SCCC(F)F [Compound A99]	5 (5=81 to 100%)	5 (5=81 to 100%)	4 (4=61 to 80%)	4 (4=61 to 80%)	5 (5=81 to 100%)	5 (5=81 to 100%)	5 (5=81 to 100%)	5 (5=81 to 100%)
N#Cc1cccc(Oc2ncc(Cl)cn2)c1SCCCC(F)F [Compound A100]	5 (5=81 to 100%)	5 (5=81 to 100%)	5 (5=81 to 100%)	4 (4=61 to 80%)	5 (5=81 to 100%)	5 (5=81 to 100%)	5 (5=81 to 100%)	5 (5=81 to 100%)
